US5441983A, “Treatment of infection by enveloped virus with calix(N)arene compounds” (Genelabs Incorporated, priority 1992, dated 1995)
Converted amounts (≈) assume the structure as drawn.

Key:
[1] = system: HSV-1 and HSV-2; test: Viral yield inhibition, HeLa cells, plaque count on Vero cells; conditions: up to 10 μg/ml, FIGS. 29A and 29B, depending on drug and virus
Experimental: The ability of selected naphthalene-subunit compounds to inhibit HSV-1 and HSV-2 viral yields at selected drug concentrations up to 10 μg/ml was assessed in the viral inhibition assay described in Example 7. Briefly, cultured Hela cells were exposed to serially diluted KY compound and virus, allowed to grow for 24 hours, then freeze/thawed 3 times to release virus particles. Vero cells were infected serial dilutions of the viral lysates were assayed for plaque counts as described in Example 6.
1×10^6 HeLa S3 were plated in 25 T flasks in 5 ml RPMI-1640+5% FCS+P/S. 24 hours later, the medium was aspirated and replaced with 6×10^6 PFU HSV-1 or HSV-2, and serial dilutions of selected KY compounds, at 10, 5, 2.5, 1.25, and 0.625 μg/ml drug. After growth at 37° C. for 24 hours in 2 ml of RPMI-1640 containing 2% FCS and P/S, the cells were frozen at -70° C. until the time for titration. The cells were freeze/thawed 3 times to release virus from the cells, and serially diluted 10 fold.
1×10^5 Vero cells were plated in each well of 24 well multi-dish in 1 ml RPMI-1640+5% FCS+P/S+0.1% methylcellulose (15 cps). On the second day, after removal of the medium, the 10 fold serially diluted virus in 100 μl was added in duplicate. […] The plaques formed were counted and the titer was calculated from the fold of dilutions.

[2] = system: HSV-2; test: Topical treatment of genital HSV-2 infection, guinea pigs, first study
Experimental: Briefly, female guinea pigs were infected intravaginally with HSV-2, then treated topically three times daily beginning 6 hours or 48 hours after inoculation with HSV-2, as described in Example 13. […] Swabs of vaginal secretion were obtained and assayed for viral activity by a standard CPE assay. The severity of genital lesions was scored on a 0-5+ scale through the period of primary infection (21 days).
(§2) The MS strain of HSV-2 was utilized for the experimental animal infection. Female Hartley strain guinea pigs (Charles River Breeding Laboratories, Kingston, NY) weighing 250-300 g were inoculated intravaginally with 2.0×10^5 plaque-forming units of HSV-2 one hour after being swabbed for removal of vaginal secretions.
In the first study, groups of 10 guinea pigs were treated topically (0.1 ml intravaginally +0.1 ml on external genital skin) three times daily (approximately every eight hours) for seven days beginning 6 h or 48 h after inoculation with HSV-2.
To determine the effect of treatment on vaginal viral replication, swabs of vaginal secretions were obtained on days 1, 3, 5, 7 and 10 after HSV inoculation, placed in a tube containing 2.0 ml of media, vortexed and frozen at -70° C. until titrated for HSV-2. When all samples were collected, they were thawed, diluted serially and HSV-2 titers determined using rabbit kidney cells in a microtiter CPE assay.
(§3) To determine the effect of therapy on the development and spread of external genital lesions, lesion severity was scored on a 0-5+ scale through the primary infection period (19-21 days). Lesion score-day areas and virus titer-day areas under the curve, and peak lesion scores and peak virus titers between untreated and placebo-treated or placebo-treated and drug-treated animals were compared using the Mann-Whitney U range sum test. A p-value of 0.05 or less was considered significant.

[3] = system: HSV-1 KOS(PMEA)'; test: Inhibition of viral yield, drug-resistant HSV-1 KOS(PMEA)'; conditions: Human alphaherpesvirus 1, HeLa, read-out: ID90
Experimental: (§4) These compounds tested were the nucleoside analogs acyclovir (ACV), ganciclovir (DHPG), phosphonoformate (PFA), and phosphomethoxyethyladenine (PMEA). Inhibition of viral yield was determined, as above, by infecting Hela cells in the presence of wild type or drug-resistant strains of HSV-1 or HSV-2, and serial dilutions of a selected anti-viral compound, and infecting Vero cells with serial dilutions of the Hela cell lysate, as above.
(§5) The KOS (HSV-1) and 333 (HSV-2) are wild type viruses; the KOS(PMEA)' and KOS(PFA)' are drug-resistant HSV-1 strains having a DNA polymerase mutation. The 333(DHPG) strain is a drug-resistantHSV-2 strain having a thymidine kinase mutation.
(§6) The following strains of HSV-1 and HSV-2 virus were used: KOS, a wild type HSV-1 virus; KOS (PMEA) and KOS (PFA), both drug-resistant HSV-1 viruses having a DNA polymerase mutation; 333, a wild type HSV-2 HSV-2 virus, and 333 (DHPG), a drug-resistant HSV-2 virus having a thymidine kinase mutation.
(§7) After growth at 37° C. for 24 hours in 2 ml of RPMI-1640 containing 2% FCS and penicillin and streptomycin (P/S), the cells were frozen at -70° C. until the time for titration. The cells were freeze/thawed 3 times to release virus from the cells, serially diluted 10 fold, and the serial dilutions were added to Vero cells in culture. After 2 hours incubation at 37° C. the virus was removed and 0.5 ml methycellulose (4K cps) in RPMI-1640 and 2% FCS+P/S was added. Two days later, the medium was removed. The cells were stained in 0.8% crystal violet in 50% ethanol. The plaques formed were counted and the titer was calculated from the fold of dilutions. From the drug dose response, the concentration of each drug required to effect a 90% inhibition of virus yield, the IC90 concentration was determined.

[4] = system: HSV-1 KOS; test: Inhibition of viral yield, wild type HSV-1 KOS; conditions: Human alphaherpesvirus 1, HeLa, read-out: ID90
Experimental: as §4, §5, §6, §7

[5] = system: HSV-2 333; test: Inhibition of viral yield, wild type HSV-2 333; conditions: Human alphaherpesvirus 2, HeLa, read-out: ID90
[6] = system: HSV-2; test: Topical treatment of genital HSV-2 infection, guinea pigs, second study; conditions: for % Animals with Lesions / Lesion Score (AUC) / Mean Peak lesion score: 24 h
Experimental: In another study using the guinea pig genital model described above, animals were infected with HSV-2, then treated with KY-1 or Y-1 topically at concentrations of 2% or 5% drug. […] Animals were treated and scored daily for severity of infection for 19 days.
as §2
Formulations of KY-1 or Y-1 were prepared by dissolving the compound in a 1.5% methyl cellulose solution such that final concentration of compound was 2% or 5% (wt/wt). Control animals were given either no treatment (N=10 animals) or treatment with placebo (1.5% methylcellulose solution).
as §3
Animals were scored daily for 19 days following inoculation for presence of lesions and severity of lesions (on a 0-5+ point scale). Lesion scores were tabulated as area under the curve of daily lesion score vs. time (days) and peak lesion score observed. A known antiviral agent, acyclovir (ACV) was administered in a 5% formulation to 8 animals as a positive control in the study.

[7] = system: Influenza A (Taiwan); test: Inhibition of influenza A cytopathic effect (clumping) in MDCK cells; assay type: cell-based, Influenza A virus (A/Taiwan strain); conditions: Influenza A virus, 24 h, 50% reduction in percent clumped cells, read-out: ED50 Influenza A (Taiwan)
Experimental: With virus infection, a cytopathic effect characterized by cell clumping is observed. For each compound tested, drug concentrations of 0.1, 1, 10, 25, and 100 μg/ml were added to cultured cells at the time of virus infection, as detailed in Examples 9 and 11. […] The inhibition of clumping was plotted as a function of drug concentration, to determine the dose effective to produce a 50% reduction in the percent clumped cells, measured with respect to control (no drug treatment).
Assays to assess the antiviral activity of KY- and Y-compounds in tissue culture were performed in 96-well flat-bottom tissue culture plates (Falcon 307), using conditions similar to those used in the cytotoxicity assays described above. In these assays, compound was tested in quadruplicate by serially diluting the compound in 2% FCS-MEM using serial two-fold dilutions (0.05 ml/well). A 0.05 ml volume of the appropriate virus containing approximately 100 median tissue culture infectious doses (TCID50) was then added to all wells except those set aside as antiviral and tissue control wells. Next, approximately 3×10^3 HEp2 cells (0.1 ml) were added to each well. Control wells containing antiviral and no virus (antiviral control), containing virus but no antiviral (virus control), or containing medium without virus or antiviral (tissue control), were included in each test. The challenge virus was then back titrated. All assay plates were incubated at 35° C. for 5 to 7 days in a 5% CO2 incubator.
The anti-influenza A activity of KY compounds was evaluated as described in Example 9, except that MDCK cells (kidney cell line) was used for infection in vitro by influenza virus (strain A/Taiwan).

[8] = system: adenovirus; test: Inhibition of adenovirus cytopathic effect in Vero cells; assay type: cell-based, adenoviruses 5 and 7; conditions: 1-100 μg, 24 h
Experimental: (§1) The ability of KY compounds to inhibit cell infection by a rhinovirus and adenoviruses 5 and 7 which are non-enveloped viruses, was similarly studied. Vero cells (10^5) were infected with a rhinovirus in the presence of KY-1, at concentrations ranging between 1-100 μg. Twenty-four hours after virus infection, the cells were examined for cytopathic effect, evidencing viral infection.
Vero cells were infected with adenovirus in the presence of KY-1, also at concentrations ranging between 1-100 μg, and twenty-four hours after virus infection, the cells were examined for cytopathic effect.

[9] = system: HSV-1 KOS (PFA)'; test: Inhibition of viral yield, drug-resistant HSV-1 KOS(PFA)'; conditions: Human alphaherpesvirus 1, HeLa, read-out: ID90
Experimental: as §4, §5, §6, §7

[10] = system: rhinovirus; test: Inhibition of rhinovirus cytopathic effect in Vero cells; assay type: cell-based; conditions: 1-100 μg, 24 h
Experimental: as §1

[11] = system: RSV; test: Inhibition of RSV cytopathic effect in HEp2 cells; assay type: cell-based; conditions: human respiratory syncytial virus, HEp-2, read-out: ED50 RSV
[12] = system: HSV-1; test: Inactivation of purified HSV-1 by compound, plaque number after serial dilution; conditions: for Plaque number, dilution 10^2 / Plaque number, dilution 10^3 / Plaque number, dilution 10^4 / Plaque number, dilution 10^5 / Plaque number, dilution 1 / Plaque number, dilution 10^1: 10 μg/ml, duplicate
Experimental: In a third study, purified HSV-1 virus suspensions were incubated with KY-1 or the sodium salt thereof, or a control solution for 1 hour, then serially diluted to drug concentrations between 10^1 to 10^-4 μg/ml as described in Example 16. The "X" symbol in the table indicates plaques too numerous to count.
Purified HSV-1 was suspended in RPMI-1640 medium (Gibco Laboratories) containing 2% FCS, penicillin and streptomycin. […] The suspensions were incubated for 1 hour at 37° C., then diluted serially at 10 fold dilutions to final drug concentrations of 10, 10^0, 10^-1, 10^-2, 10^-3 and 10^-4 μg/ml drug concentrations The serially diluted particles were then added to Vero cells for two hours, as in Example 6, and the cells examined for plaques 48 hours later.

[13] = system: HSV-1; test: Plaque reduction assay, HSV-1, Vero cells; assay type: cell-based, HSV-1 (Kos-1); conditions: Human alphaherpesvirus 1, Vero, plaque reduction, Vero cells
[14] = system: HIV-HXB; test: Inhibition of syncytia formation, HIV-HXB (HTLV-IIIB); conditions: Human immunodeficiency virus 1, 18 h, read-out: HIV-HXB ED100, complete inhibition of syncytia formation
Experimental: Briefly, cells chronically infected with HTLV-IIIB or RF-II HIV strains were incubated in the presence of serial dilutions of the selected KY compound, then further cocultured with indicator cells. The extent of syncytia formation was scored under phase microscopy.
Representative calix(n)arene compounds from Table 2 were tested for inhibition of cytopathic effects in cells infected with one of two HTLV-III strains, HTLV-IIIB and RF-II strains, as described in Example 12, and in the subsection above.
Human CD4^+ indicator cells (VB) and chronically infected H9 cells were maintained in RPMI-1640 medium supplemented with 5% fetal calf serum, 100 Units of penicillin per ml and 100 μg of streptomycin per ml at 37° C. in a humidified incubator containing 7% CO2.
For the fusion assay, serial dilutions between 1:2 and 1:2^8 of a selected KY compound, 1 mg/ml in PBS were made in a 96 well round bottom plate. The diluted KY compound was transferred to a 96 well flat-bottom plate. To each well was added 25 μg chronically infected H9 cells (at 2×10^6, cells/ml), or cells chronically infected with RF-II strain HIV, followed by incubation at 37° C. for 45 minutes. To each well was then added 25 μl VB cells (about 5×10^4 cells), and the cells and virus isolates were cocultured for 18 hours in a humid 5% CO2 atmosphere.

O=S(=O)(O)c1cc2cc(S(=O)(=O)O)c3c(O)c2c(O)c1Cc1c(S(=O)(=O)O)cc2cc(S(=O)(=O)O)c(c(O)c2c1O)Cc1c(S(=O)(=O)O)cc2cc(S(=O)(=O)O)c(c(O)c2c1O)Cc1c(S(=O)(=O)O)cc2cc(S(=O)(=O)O)c(c(O)c2c1O)C3 [KY-1]
dose dependent drop in viral yield [1]: 3-5 orders of magnitude
Lesion score Area Under Curve ([2]; 1%, +6 h): 30.8
Mean Peak lesion score ([2]; 1%, +6 h): 2.9
AUC, in words ([2]; 1%, +6h, P<0.01): significantly reduced the AUC
Lesion score Area Under Curve ([2]; 1%, +48 h): 46.6
Mean Peak lesion score ([2]; 1%, +48 h): 4.3
lesion development (AUC and mean peak lesion scores) versus placebo ([2]; 5%, 6h after infection, P <0.001): significantly reduced
Lesion score Area Under Curve ([2]; 5%, +6 h): 3.8
Mean Peak lesion score ([2]; 5%, +6 h): 0.8
Lesion score Area Under Curve ([2]; 5%, +48 h): 45.7
Mean Peak lesion score ([2]; 5%, +48 h): 3.7
IC90 [3]: 2.6 µg/mL (≈ 1.96 µM)
IC90 [4]: 1.9 µg/mL (≈ 1.43 µM)
IC90 [5]: 3.2 µg/mL (≈ 2.41 µM)
% Animals with Lesions ([6]; 2%): 70%
Lesion Score (AUC) ([6]; 2%): 16.2
Mean Peak lesion score ([6]; 2%): 2.2
% Animals with Lesions ([6]; 6%): 50%
Lesion Score (AUC) ([6]; 6%): 17.5
Mean Peak lesion score ([6]; 6%): 1.7
lesions, in words ([6]; 24 hours post-infection, 6% KY-1 or Y-1, 2% KY-1): reduced numbers of lesion bearing animals and reduced severity of lesions
EC50 [7]: > 188 µg/mL
reduction in cell clumping, adenovirus [8]: No reduction in cell clumping
IC90 [9]: 4.3 µg/mL (≈ 3.23 µM)
reduction in cell clumping, rhinovirus [10]: No reduction in cell clumping
EC50 [11]: 0.19 µg/mL (≈ 0.143 µM)
Plaque number, dilution 10^2 ([12]; 0.3 pfu/cell): 0,0
Plaque number, dilution 10^3 ([12]; 0.3 pfu/cell): 0,0
Plaque number, dilution 10^4 ([12]; 0.3 pfu/cell): 0,0
Plaque number, dilution 10^5 ([12]; 0.3 pfu/cell): 0,0
Plaque number, dilution 1 ([12]; 0.3 pfu/cell, listed as KY 1): 3,2
Plaque number, dilution 10^1 ([12]; 0.3 pfu/cell, listed as KY 1): 0,0
Plaque number, dilution 10^4 ([12]; 3 pfu/cell): 0,0
Plaque number, dilution 10^5 ([12]; 3 pfu/cell): 0,0
Plaque number, dilution 1 ([12]; 3 pfu/cell, listed as KY 1): 2,2
Plaque number, dilution 10^1 ([12]; 3 pfu/cell, listed as KY 1): 2,1
Plaque number, dilution 10^2 ([12]; 3 pfu/cell, listed as KY 1): 17,16
Plaque number, dilution 10^3 ([12]; 3 pfu/cell, listed as KY 1): 5,2
final drug concentration with complete virus inhibition ([12]; after dilution of treated virus): 10^-2 to 10^-4 μg/ml
IC50 [13]: 2.7 µg/mL (≈ 2.03 µM)
EC100 [14]: 8 µg/mL
